Results on 25 compounds are retold here after patent publication US20220226299A1 (NIPPON CHEMIPHAR CO., LTD., priority 2019, published 2022).

A word on the IC50: it is the concentration needed to halve the response being measured.

The target in this assay is T1, human Cav3.2 channels (Homo sapiens, UniProt O95180).
T1 construct: human Cav3.2 channel ORF (Open Reading Frame) gene; expressed in transfected cells; host or cells: HEK293 cells (ATCC No. CRL-1573), pcDNA3.1(+) plasmid
Description: T-type calcium blocking action: intracellular calcium (Fluo-4 AM fluorescence) in HEK293 cells steadily expressing human Cav3.2 channels. It is filed as cell-based. The conditions noted are these: HEK293 cells expressing human Cav3.2; KCl-stimulated calcium influx, Fluo-4 fluorescence; Tables 1 to 3. The procedure, abridged:
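Fluo-4 AM-loaded stable HEK293 cells were preincubated 15 min at RT with compound (0.1% DMSO final) in choline-based buffer (pH 7.3). Gramicidin was added, then KCl-induced calcium influx was read at 485/510 nm for 10 s. Percent block came from peak rise over baseline, and IC50 from log-concentration plots.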

T1 sequence (O95180 whole entry): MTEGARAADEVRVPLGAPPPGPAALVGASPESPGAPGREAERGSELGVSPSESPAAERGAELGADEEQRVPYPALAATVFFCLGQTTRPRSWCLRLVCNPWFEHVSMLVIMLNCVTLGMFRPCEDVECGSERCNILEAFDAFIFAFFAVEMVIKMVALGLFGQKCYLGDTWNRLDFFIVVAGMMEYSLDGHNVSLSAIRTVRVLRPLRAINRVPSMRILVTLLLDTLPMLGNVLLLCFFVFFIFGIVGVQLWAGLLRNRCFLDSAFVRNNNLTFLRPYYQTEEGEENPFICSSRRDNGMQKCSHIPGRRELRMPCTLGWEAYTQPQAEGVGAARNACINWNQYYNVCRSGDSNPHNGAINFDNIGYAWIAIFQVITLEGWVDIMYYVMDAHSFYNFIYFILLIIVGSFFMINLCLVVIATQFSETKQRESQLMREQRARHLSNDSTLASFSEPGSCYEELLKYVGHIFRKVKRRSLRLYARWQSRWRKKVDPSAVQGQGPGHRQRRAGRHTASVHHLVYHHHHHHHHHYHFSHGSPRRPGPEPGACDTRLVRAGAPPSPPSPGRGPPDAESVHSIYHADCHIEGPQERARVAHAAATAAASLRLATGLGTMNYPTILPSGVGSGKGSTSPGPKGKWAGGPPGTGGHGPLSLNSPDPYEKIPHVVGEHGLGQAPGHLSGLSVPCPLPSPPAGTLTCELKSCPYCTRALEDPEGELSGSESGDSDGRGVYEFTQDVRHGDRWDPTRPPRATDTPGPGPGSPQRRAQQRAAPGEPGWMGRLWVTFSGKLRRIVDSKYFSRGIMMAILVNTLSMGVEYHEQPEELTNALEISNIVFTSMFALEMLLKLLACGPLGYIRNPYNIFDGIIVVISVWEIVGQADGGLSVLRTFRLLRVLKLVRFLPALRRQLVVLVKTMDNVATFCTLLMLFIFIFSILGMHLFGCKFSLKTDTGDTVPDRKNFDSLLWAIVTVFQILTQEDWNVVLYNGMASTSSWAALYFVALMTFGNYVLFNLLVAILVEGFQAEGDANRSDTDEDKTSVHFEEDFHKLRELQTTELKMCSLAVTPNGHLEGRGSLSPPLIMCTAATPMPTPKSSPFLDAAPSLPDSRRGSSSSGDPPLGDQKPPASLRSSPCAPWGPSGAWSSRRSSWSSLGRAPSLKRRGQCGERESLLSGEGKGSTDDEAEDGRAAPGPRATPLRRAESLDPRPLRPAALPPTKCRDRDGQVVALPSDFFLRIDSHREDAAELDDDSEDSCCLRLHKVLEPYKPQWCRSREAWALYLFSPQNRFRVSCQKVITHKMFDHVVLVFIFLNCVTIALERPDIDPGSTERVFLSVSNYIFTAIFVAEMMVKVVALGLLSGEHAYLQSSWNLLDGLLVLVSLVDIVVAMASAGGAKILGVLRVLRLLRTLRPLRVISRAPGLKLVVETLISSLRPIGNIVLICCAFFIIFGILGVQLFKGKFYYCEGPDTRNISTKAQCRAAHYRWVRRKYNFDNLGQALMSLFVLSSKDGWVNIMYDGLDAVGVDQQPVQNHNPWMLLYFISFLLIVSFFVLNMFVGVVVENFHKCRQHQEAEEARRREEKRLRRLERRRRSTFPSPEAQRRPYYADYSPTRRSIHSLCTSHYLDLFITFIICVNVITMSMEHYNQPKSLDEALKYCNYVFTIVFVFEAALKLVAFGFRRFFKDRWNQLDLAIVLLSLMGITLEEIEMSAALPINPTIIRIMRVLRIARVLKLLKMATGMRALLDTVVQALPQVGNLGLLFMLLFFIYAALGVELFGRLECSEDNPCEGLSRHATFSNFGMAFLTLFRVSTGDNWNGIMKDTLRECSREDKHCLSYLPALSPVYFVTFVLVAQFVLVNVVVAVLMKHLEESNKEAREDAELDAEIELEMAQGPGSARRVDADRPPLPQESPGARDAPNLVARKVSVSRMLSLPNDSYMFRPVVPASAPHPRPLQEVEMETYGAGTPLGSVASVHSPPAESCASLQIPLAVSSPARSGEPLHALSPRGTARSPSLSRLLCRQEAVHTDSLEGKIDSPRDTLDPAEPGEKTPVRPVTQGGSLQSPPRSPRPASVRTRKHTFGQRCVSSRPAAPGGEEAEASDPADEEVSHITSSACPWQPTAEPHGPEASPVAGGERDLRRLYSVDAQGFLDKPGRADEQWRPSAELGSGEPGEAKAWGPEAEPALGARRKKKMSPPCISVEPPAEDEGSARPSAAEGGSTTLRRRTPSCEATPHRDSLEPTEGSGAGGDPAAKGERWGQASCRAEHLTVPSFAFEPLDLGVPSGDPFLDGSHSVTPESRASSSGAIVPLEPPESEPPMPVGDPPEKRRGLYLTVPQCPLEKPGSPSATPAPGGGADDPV

`CC1(C)CN(c2ccc(CC(=O)N[C@@H]3CCN(c4cncc(C(F)(F)F)c4)C3)cc2)CCO1` [Example 145, (R)-2-(4-(2,2-dimethylmorpholino)phenyl)-N-(1-(5-(trifluoromethyl)pyridin-3-yl)pyrrolidin-3-yl)acetamide]: the IC50 was found to be 130 nM.

`O=C(Cc1ccc(C2CC2)cc1)N[C@@H]1CCN(c2ccc(F)c(C(F)(F)F)c2)C1` [Example 174, (R)-2-(4-cyclopropylphenyl)-N-(1-(4-fluoro-3-(trifluoromethyl)phenyl)pyrrolidin-3-yl)acetamide]: the IC50 was found to be 200 nM.

Take `O=C(Cc1ccc(N2C[C@@H]3CC[C@H]2CO3)cc1)N[C@@H]1CCN(c2ccc(C(F)(F)F)nc2)C1` [Example 156, 2-(4-((1S,4S)-2-oxa-5-azabicyclo[2.2.2]octan-5-yl)phenyl)-N—((R)-1-(6-(trifluoromethyl)pyridin-3-yl)pyrrolidin-3-yl)acetamide]: the IC50 worked out at 1300 nM.

For `CC(C)(O)COc1ccc(CC(=O)N[C@@H]2CCN(c3cncc(C(F)(F)F)c3)C2)cc1` [Example 27, (R)-2-(4-(2-hydroxy-2-methylpropoxy)phenyl)-N-(1-(5-(trifluoromethyl)pyridin-3-yl)pyrrolidin-3-yl)acetamide], the concentration for half-maximal inhibition (IC50) was 700 nM.

On to `O=C(Cc1ccc(C2CC2)cc1)N[C@@H]1CC[N+]([O-])(c2cncc(C(F)(F)F)c2)C1` (stereo partly drawn) [Example 134B, (3R)-3-(2-(4-cyclopropylphenyl)acetamido)-1-(5-(trifluoromethyl)pyridin-3-yl)pyrrolidine 1-oxide], for which the concentration for half-maximal inhibition (IC50) is 1000 nM.

As for `[2H]C([2H])(C(=O)N[C@@H]1CCN(c2cncc(C(F)(F)F)c2)C1)c1ccc(C(F)(F)F)cc1` [Example 83, (R)-2-(4-(trifluoromethyl)phenyl)-N-(1-(5-(trifluoromethyl)pyridin-3-yl)pyrrolidin-3-yl)acetamide-2,2-d2], the IC50 was 82 nM.

On to `O=C(N[C@@H]1CCN(c2cncc(C(F)(F)F)c2)C1)C1CC1c1ccc(F)c(F)c1` (single isomer, unassigned) [Example 107B], for which the half-maximal inhibitory concentration (IC50) is 560 nM.

`CC(C)c1ccc(CC(=O)N[C@@H]2CCN(c3ccc(C(F)(F)F)s3)C2)cc1` [Example 122, (R)-2-(4-isopropylphenyl)-N-(1-(5-(trifluoromethyl)thiophen-2-yl)pyrrolidin-3-yl)acetamide]: the IC50 worked out at 1500 nM.

Take `NC(=O)C1(NC(=O)Cc2ccc(C3CC3)cc2)CCN(c2cncc(C(F)(F)F)c2)C1` (stereo not shown) [Example 21, 3-(2-(4-cyclopropylphenyl)acetamido)-1-(5-(trifluoromethyl)pyridin-3-yl)pyrrolidine-3-carboxyamide]: the IC50 was determined as 1200 nM.

As for `O=C(N[C@@H]1CCN(c2ccc(C(F)(F)F)nc2)C1)[C@H]1C[C@@H]1c1nc2ccc(F)cc2o1` [Example 48, (1S,2S)-2-(6-fluorobenzo[d]oxazol-2-yl)-N—((R)-1-(6-(trifluoromethyl)pyridin-3-yl)pyrrolidin-3-yl)cyclopropane-1-carboxyamide], the half-inhibitory concentration (IC50) was determined as 240 nM.

On to `O=C(N[C@@H]1CCN(c2nc(C(F)(F)F)cs2)C1)[C@H]1C[C@@H]1c1nc2ccccc2[nH]1` [Example 64, (1S,2S)-2-(1H-benzo[d]imidazol-2-yl)-N—((R)-1-(4-(trifluoromethyl)thiazol-2-yl)pyrrolidin-3-yl)cyclopropane-1-carboxyamide], for which the concentration for half-maximal inhibition (IC50) came out at 37 nM.

Regarding `Cc1nc2cc(CC(=O)N[C@@H]3CCN(c4ccc(C(F)(F)F)nc4)C3)ccc2o1` [Example 154, (R)-2-(2-methylbenzo[d]oxazol-5-yl)-N-(1-(6-(trifluoromethyl)pyridin-3-yl)pyrrolidin-3-yl)acetamide], the IC50 is 1000 nM.

For `N#Cc1ncc(N2CC[C@@H](NC(=O)Cc3ccc(C4CC4)cc3)C2)cc1C(F)(F)F` [Example 12, (R)—N-(1-(6-cyano-5-(trifluoromethyl)pyridin-3-yl)pyrrolidin-3-yl)-2-(4-cyclopropylphenyl)acetamide], the IC50 was determined as 280 nM.

With `O=C(N[C@@H]1CCN(c2cncc(C(F)(F)F)c2)C1)[C@H]1C[C@@H]1c1nc2ccccc2o1` [Example 39, (1S,2S)-2-(benzo[d]oxazol-2-yl)-N—((R)-1-(5-(trifluoromethyl)pyridin-3-yl)pyrrolidin-3-yl)cyclopropane-1-carboxyamide], the IC50 worked out at 22 nM.

As to `C[Si](C)(C)c1ccc(CC(=O)N[C@@H]2CCN(c3cncc(C(F)(F)F)c3)C2)cc1` [Example 26, (R)—N-(1-(5-(trifluoromethyl)pyridin-3-yl)pyrrolidin-3-yl)-2-(4-(trimethylsilyl)phenyl)acetamide], the IC50 stood at 150 nM.

On to `O=C(Cc1ccc2ocnc2c1)N[C@@H]1CCN(c2ccc(C(F)(F)F)nc2)C1` [Example 151, (R)-2-(benzo[d]oxazol-5-yl)-N-(1-(6-(trifluoromethyl)pyridin-3-yl)pyrrolidin-3-yl)acetamide], for which the 50% inhibitory concentration (IC50) was found to be 2700 nM.

For `COC(=O)C1(NC(=O)Cc2ccc3cc[nH]c3c2)CCN(c2cncc(C(F)(F)F)c2)C1` (stereo not shown) [Example 37, Methyl 3-(2-(1H-indol-6-yl)acetamido)-1-(5-(trifluoromethyl)pyridin-3-yl)pyrrolidine-3-carboxylate], the half-maximal inhibitory concentration (IC50) came out at 27 nM.

Turning to `C[C@H]1C[C@@H](NC(=O)Cc2ccc(C3CC3)cc2)CN1c1cncc(C(F)(F)F)c1` [Example 9, 2-(4-cyclopropylphenyl)-N-((3R,5S)-5-methyl-1-(5-(trifluoromethyl)pyridin-3-yl)pyrrolidin-3-yl)acetamide], the concentration for half-maximal inhibition (IC50) came out at 480 nM.

As for `O=C(Cc1ccc(C(F)(F)F)c(F)c1)N[C@@H]1CCN(c2cncc(C(F)(F)F)c2)C1` [Example 32, (R)-2-(3-fluoro-4-(trifluoromethyl)phenyl)-N-(1-(5-(trifluoromethyl)pyridin-3-yl)pyrrolidin-3-yl)acetamide], the IC50 was 150 nM.

Take `O=C(N[C@@H]1CCN(c2cncc(C(F)(F)F)c2)C1)C1CC1c1ccc(Br)cc1` (single isomer, unassigned) [Example 100A]: the IC50 is 9.3 nM.

Turning to `O=C(Cc1ccc2[nH]ncc2c1)N[C@@H]1CCN(c2ccc(C(F)(F)F)nc2)C1` [Example 160, (R)-2-(1H-indazol-5-yl)-N-(1-(6-(trifluoromethyl)pyridin-3-yl)pyrrolidin-3-yl)acetamide], the IC50 was found to be 6400 nM.

As to `O=C(N[C@@H]1CCN(c2cncc(C(F)(F)F)c2)C1)C1CC1c1cc(Cl)cc(Cl)c1` (single isomer, unassigned) [Example 99A], the concentration for half-maximal inhibition (IC50) stood at 90 nM.

In the case of `COCC1(NC(=O)Cc2ccc(C3CC3)cc2)CCN(c2cncc(C(F)(F)F)c2)C1` (stereo not shown) [Example 105, 2-(4-cyclopropylphenyl)-N-(3-(methoxymethyl)-1-(5-(trifluoromethyl)pyridin-3-yl)pyrrolidin-3-yl)acetamide], the IC50 was determined as 240 nM.

Regarding `CCC1(NC(=O)Cc2ccc(C3CC3)cc2)CCN(c2cncc(C(F)(F)F)c2)C1` (stereo not shown) [Example 43, 2-(4-cyclopropylphenyl)-N-(3-ethyl-1-(5-(trifluoromethyl)pyridin-3-yl)pyrrolidin-3-yl)acetamide], the half-inhibitory concentration (IC50) was 190 nM.

For `CC(C)c1ccc(CC(=O)N[C@@H]2CCN(c3nc(C(F)(F)F)cs3)C2)cc1` [Example 112, (R)-2-(4-isopropylphenyl)-N-(1-(4-(trifluoromethyl)thiazol-2-yl)pyrrolidin-3-yl)acetamide], the 50% inhibitory concentration (IC50) came to 110 nM.
